A short description of series [1]: Repeat dose tox study in rats. Format: in vivo, rat. As to conditions: up to 10 ug/kg/day for 7 days, IV tail vein injection. The method, then: In a repeat dose tox study in rats—animals were given up to 10 ug/kg/day for 7 days by IV tail vein injection. […] In a repeat dose tox study in mini-pigs—animals were given up to 5 ug/kg/day IV approximately 1×/week.

Series [2] in a line: PK profile in mice after IV tail vein injection. As to conditions: 10 and 50 ug/kg IV tail vein. It is filed as in vivo, mouse. The method, then: In a study to determine PK profile of PEP in mice—10 and 50 ug/kg were administered by IV tail vein injection. […] Again potentially problematic for IV delivery.
Series [3] deals with tyrosine hydroxylase (TH). Format: cell-based, human. The method, then:
iPSC maintenance, mDA neuron differentiation and drug treatments: iPSCs were maintained in E8 media on Matrigel and passaged every 5 days at split ratios from 1:6 to 1:12 as needed using Versene. Only iPSCs between passage 17 and passage 35 were used in this study. For differentiation, iPSCs were grown to ˜80% confluency. Cells were singularized with Accutase (Millipore/Sigma #SCR005) (5 minutes at 37° C.) and plated onto Matrigel-coated 6-well plates (BD Biosciences) at 200K cells per cm^2 (for a fully confluent monolayer) in E8 media with 5 μM Y27632 (StemGent). 24 hours after plating, media was changed to Stage 1 (50% DMEM/F12, 50% Neurobasal, N2, B27-Vitamin A, LDN-193189 (LDN), SB431542 (SB)). Stage 1 media was changed each day (3 mL per well) for 3 days. Media was next switched to Stage 2 (50% DMEM/F12, 50% Neurobasal, N2, B27-Vitamin A, LDN, SB, Purmorphamine (PMN), CHIR99021 (CHIR), Sonic hedgehog (SHH), Fibroblast Growth Factor 8 (FGF8)). Stage 2 media was changed each day (3 mL per well) for 4 days. Media was then switched to Stage 3 (50% DMEM/F12, 50% Neurobasal, N2, B27-Vitamin A, LDN, CHIR, all-trans-Retinoic acid (ATRA)). Stage 3 media was changed each day (3 mL per well) for 4 days. Finally, media was switched to Stage 4 (50% DMEM/F12, 50% Neurobasal, N2, B27+Vitamin A, Brain-Derived Neurotrophic Factor (BDNF), Glial Cell Line-Derived Neurotrophic Factor (GDNF), dibutyryl cyclic-AMP sodium salt (dbCAMP), L-Ascorbic Acid (AA), γ-Secretase inhibitor (DAPT), CHIR, Transforming Growth Factor beta-3 (TGF β3)). Stage 4 media was changed each day (3 mL per well) for 3 days. On day 15, cells were dissociated to single cells using Accutase (20 mins at 37° C.) and gently lifted. Dissociated cells were resuspended in Maturation Medium (50% DMEM/F12, 50% Neurobasal, N2, B27+Vitamin A, BDNF, GDNF, dbCAMP, AA, DAPT, TGF3) plus 5 μM Y27632 and reseeded onto Matrigel-coated 6-well plates at 200 k/cm^2 in 1 mL total volume or onto Matrigel-coated L-glass coverslips in a 24-well plate at 200 k/50 μL drop. Cells were allowed to attach for 45 mins at 37° C. and Maturation Medium was then added to final volumes of 3 mL per well for 6-well plates or 1.5 mL per well for 24-well plates with coverslips. A full medium change was performed 48-hours post-seeding and medium was changed every 3 days until day 30. For drug treatments, cells at day-27 were fed with Maturation Medium containing the indicated drug and cells were analyzed at day 30.
Analytical flow cytometry: Day-30 cultures in 6-well plates were washed once in phosphate buffered saline (PBS) then 1 mL Accutase was added to each well and incubated for 25 mins at 37° C. or until the cells fully lifted. Cells were washed with an additional 2 mL Maturation Medium and very gently triturated until large clumps were no longer visible at which point cells were pelleted by centrifugation (1500 RPM for 3 mins). Cells were gently resuspended in 4% paraformaldehyde (PFA) in PBS and allowed to fix for 10-15 mins at room temperature. Fixed single cells were permeabilized using 1% Trition X-100 (Sigma-Aldrich) and stained using primary antibodies against TH (1:500 Immunostar, 22941), α-synuclein (1:1000 Abcam, ab138501), and MAP2ab (1:1000 Sigma-Aldrich, M1406), or isotype controls at same dilution (Cell Signaling IgG Isotype Control rabbit #3900S and mouse #5415S). Secondary antibodies (Alexa Fluor 488 and 594 donkey anti-mouse and donkey anti-rabbit, Invitrogen) were used at 1:500. Stained samples were quantified on an LSR Fortessa cytometer using BD FACSDiva software.
Immunocytochemistry and imaging: mDA neuron cultures were plated on L-glass coverslips and grown as above. Day 30 neurons were fixed in 4% PFA at room temperature for 10-15 mins. […]

Series [4] relates to TH. Description: TH gene expression over PEP005 time-course (qPCR). It is filed as cell-based, human. Particulars: roughly 8 hours after initial exposure. The method, then: qPCR: Total cellular RNA was isolated using TRIzol Reagent followed by Qiagen RNeasy Mini kit with DNase treatment. Total RNA (1 μg) was used for cDNA synthesis using the Quantitate Reverse Transcription Kit for cDNA synthesis for PCR (Qiagen). Real-time PCR was performed using the SYBR Green Supermix (BIO-RAD). The levels of expression of respective genes were normalized to corresponding GAPDH values and shown as fold change relative to the value of the control sample (ΔΔCt method)

Series [5] is described as follows: In vitro blood plasma binding, mini pig. It is filed as in vitro ADME. The text has this:
This may complicate IV delivery.

Series [6] has as its system TH. Description: Injection into the ventricles of WT mice, TH in striatum. As to conditions: 0.3, 3, and 30 uM injected into ventricles of WT mice; 1 and 5 days post injection. Format: in vivo, mouse. The procedure:
In vivo, PEP stimulates synuclein degradation. Dosage studies of 0.3, 3, and 30 uM PEP was injected into the ventricles of WT mice.

Regarding `C/C=C(/C)C(=O)O[C@H]1C(C)=C[C@]23C(=O)[C@@H](C=C(CO)[C@@H](O)[C@]12O)[C@H]1[C@@H](C[C@H]3C)C1(C)C` [PEP005, ingenol-3-angelate], the tolerability entry in series [1] was “well tolerated”. Moreover, the serum concentration entry in series [2] (1 hour after) is listed as “below detectable limits”. In series [2] (>blood flow through the liver), the clearance entry is reported as “very high clearance”. Also, the TH by immunostaining entry in series [3] (PEP005-treated mDA cultures) is on record as “enhanced”. For the same compound, in series [3] (both control and PD cultures, 3 days treatment from day 27, listed as PEP), the “amount of TH enzyme present” value is “increase”. Besides, in series [3] (d30 mDA cultures, PEP005 72 hrs), the “number of TH neurons (flow cytometry)” value was “did not result in an increased number”. Besides, the “level of TH expression in neurons (flow cytometry)” value in series [3] (d30 mDA cultures, PEP005 72 hrs, relative to untreated) is given as “significantly higher levels”. Besides, the “TH expression (qPCR)” value in the series with TH [4] is given as “upregulated”. Further, the plasma binding result in series [5] was “highly efficient plasma binding”. Also, the “TH in mouse striatum” value in the series on TH [6] was “increase”.

For the origin of these results see patent US12564568B2, “PKC pathway in Parkinson's Disease” (CEDARS-SINAI MEDICAL CENTER, priority 2018, dated 2026).
